Converted amounts (≈) assume the structure as drawn. “And” between values parts separate entries of the source, which are not always exact repeats. Identical values can stand only once.
Key:
Micrococcus luteus = experiment: Bioassay, paper-disc agar-diffusion; details: Na salts; Table VIII
[1] = Electrometric titration in 66% aqueous dimethylformamide; format: physicochemical; details: 66% DMF; Na salt; factors: two determinations
Peptococcus prevoti = experiment: MIC anaerobic bacteria, standard agar-dilution test; format: cell-based
[2] = test system: Streptococcus pyogenes C203; experiment: MIC, standard broth-dilution test; format: cell-based; details: Table XII, sodium salt
Bacteroides fragilis = experiment: MIC anaerobic bacteria, standard agar-dilution test; format: cell-based
[3] = test system: Viridans Streptococcus 9943; experiment: MIC, standard agar-dilution test; format: cell-based; details: Table XI, sodium salt
[4] = test system: Staphylococcus aureus 3055; experiment: MIC, standard agar-dilution test; format: cell-based; details: Table XI, sodium salt
[5] = test system: Streptococcus faecalis (Guze); experiment: Streptococcus faecalis descending rat pyelonephritis test; format: in vivo, rat (female albino, Cox-Wistar); details: 1.0 mg/kg × 7, subcutaneous
Description: In this test, the bacterial culture used was Streptococcus faecalis (Guze). The culture was grown on Trypticase soy agar (BBL), suspended in brain heart infusion broth (BBL), divided into 0.2-ml portions, and frozen in liquid nitrogen. Bacterial suspensions for rat inoculations were prepared daily by seeding a 50-ml flask of trypticase soy broth (BBL) from a frozen ampoule and growing the culture overnight at 37° C. on a shaker. The S. faecalis culture was diluted to 5×10^8 colony-forming units per ml. Test compounds were injected subcutaneously once daily for seven days. All compounds were suspended in 0.125% carboxymethylcellulose.
The experimental rat infections were accomplished by the following procedure. Female, random-bred albino rats (Cox-Wistar) weighing 190 to 210 g were anesthetized by intraperitoneal injection of 12 mg of sodium methohexital supplemented as necessary. The experimental pyelonephritis model was based on the studies of Guze and Beeson in which the left ureter was occluded for 20 min, followed by injection of 0.5 ml of the test organism in the femoral vein. Antimicrobial therapy was commenced 4 to 5 hrs postinfection. Four hours after the last treatment the rats were sacrificed, and the left kidney was removed and homogenized in a Duall grinder containing 9 ml of physiological saline. This represented a 10^-1 dilution of the kidney tissue. Additional 10-fold dilutions in saline were based on the anticipated bacterial cells present in the tissue homogenate. Finally, duplicate agar pour plates were made from several of these dilutions, and the plates were incubated overnight at 37° C. The therapeutic results were expressed in two ways: (i) the percentage of rats with kidney counts of less than 10^2 per g of kidney tissue, referred to as "cures," and (ii) the percentage of rats with at least a 4-log10 reduction in bacterial titer compared with infected control kidneys. Control rats were treated with 0.125% carboxymethylcellulose only. Viable cell counts in kidney tissue from control rats with S. faecalis ranged from 1.2×10^8 to 4.6×10^8 per g of homogenized tissue.

Actinomyces isaelii = experiment: MIC anaerobic bacteria, standard agar-dilution test; format: cell-based
Streptococcus pneumoniae [6] = experiment: MIC, agar dilution (Table XV); format: cell-based
Clostridium septicum = experiment: MIC anaerobic bacteria, standard agar-dilution test; format: cell-based
[7] = test system: Staphylococcus aureus 3055; experiment: MIC, standard broth-dilution test; format: cell-based; details: Table XII, sodium salt
Propionibacterium acnes = experiment: MIC anaerobic bacteria, standard agar-dilution test; format: cell-based
Toxicity (LD50) in mouse = format: in vivo
[8] = test system: Neisseria gonorrhoeae 111076-4; experiment: MIC, standard agar-dilution test; format: cell-based; details: Table XI, sodium salt
Toxicity (LD50) in rat = format: in vivo; details: IV
Staphylococcus aureus [9] = experiment: MIC, agar dilution (Table XV); format: cell-based
Text: ^1 MIC = minimum inhibitory concentration (μg/ml), agar dilution

[10] = test system: Streptococcus pneumoniae Park I; experiment: MIC, standard agar-dilution test; format: cell-based; details: Table XI, sodium salt
Clostridium perfringens = format: cell-based; details: anaerobic, agar-dilution
[11] = test system: Streptococcus pyogenes C203; experiment: MIC, standard agar-dilution test; format: cell-based; details: Table XI, sodium salt
[12] = test system: Group D Streptococcus 282; experiment: MIC, standard broth-dilution test; format: cell-based; details: Table XII, sodium salt
[13] = test system: Viridans Streptococcus 9943; experiment: MIC, standard broth-dilution test; format: cell-based; details: Table XII, sodium salt
[14] = test system: Peptostreptococcus intermedius; experiment: MIC anaerobic bacteria, standard agar-dilution test; format: cell-based
[15] = test system: Streptococcus faecalis (Guze); experiment: In vitro susceptibility (MIC) of the S. faecalis Guze strain; format: cell-based; details: Table XVI
[16] = test system: Peptococcus asaccharolyticus; experiment: MIC anaerobic bacteria, standard agar-dilution test; format: cell-based
Staphylococcus aureus [17] = experiment: Experimental bacterial infection in mice, ED50; format: in vivo; details: two doses, subcutaneous administration
Description: (§1) When two doses of test compound were administered to mice in illustrative infections, the activity observed was measured as an ED50 value [effective dose in mg/kg to protect fifty percent of the test animals: See Warren Wick, et al., J. Bacteriol. 81, 233-235 (1961)].

Streptococcus pneumoniae [18] = experiment: Experimental bacterial infection in mice, ED50; format: in vivo; details: two doses, subcutaneous administration
Description: as §1

Streptococcus pyogenes [19] = experiment: Experimental bacterial infection in mice, ED50; format: in vivo; details: two doses
Description: as §1

[20] = test system: Streptococcus pneumoniae Park I; experiment: MIC, standard broth-dilution test; format: cell-based; details: Table XII, sodium salt
[21] = test system: pathogenic organisms, particularly gram-positive bacteria; experiment: Inhibition of growth of pathogenic organisms; format: cell-based
[22] = test system: Peptostreptococcus anaerobius; experiment: MIC anaerobic bacteria, standard agar-dilution test; format: cell-based
[23] = test system: Fusobacterium necrophorum; experiment: as above; format: cell-based
Fusobacterium symbiosum = experiment: as above; format: cell-based
[24] = test system: Group D Streptococcus 282; experiment: MIC, standard agar-dilution test; format: cell-based; details: Table XI, sodium salt
Eubacterium aerofaciens = experiment: MIC anaerobic bacteria, standard agar-dilution test; format: cell-based
Streptococcus pyogenes [25] = experiment: MIC, agar dilution (Table XV); format: cell-based

Row | SMILES | Bioassay (Micrococcus luteus) (Micrococcus luteus) [units/mg] | pKa (first group) [1] | pKa (second group) [1] | MIC (Peptococcus prevoti) [µg/mL] | MIC [2] [µg/mL] | MIC (Bacteroides fragilis) [µg/mL] | MIC [3] [µg/mL] | MIC [4] [µg/mL] | Percent of Rats Cured [5] [%] | Percent of Rats with a 4-Log Titer Decrease [5] [%] | MIC (Actinomyces isaelii) [µg/mL] | MIC (Streptococcus pneumoniae [6]) [µg/mL] | MIC (Clostridium septicum) [µg/mL] | MIC [7] [µg/mL] | MIC (Propionibacterium acnes) [µg/mL] | LD50 (Toxicity (LD50) in mouse; IV) [mg/kg] | LD50 (Toxicity (LD50) in mouse; SC) [mg/kg] | MIC [8] [µg/mL] | LD50 (Toxicity (LD50) in rat) [mg/kg] | MIC (Staphylococcus aureus [9]) [µg/mL] | further results
1 | CC(C)CCCCCCCCC(=O)N[C@@H](Cc1c[nH]c2ccccc12)C(=O)N[C@@H](CC(N)=O)C(=O)N[C@@H](CC(=O)O)C(=O)N[C@@H]1C(=O)NCC(=O)N[C@@H](CCCN)C(=O)N[C@@H](CC(=O)O)C(=O)N[C@H](C)C(=O)N[C@@H](CC(=O)O)C(=O)NCC(=O)N[C@H](CO)C(=O)N[C@@H]([C@H](C)CC(=O)O)C(=O)N[C@@H](CC(=O)c2ccccc2N)C(=O)O[C@@H]1C [Factor C2] | 1390 | 5.8 and 5.93 | 7.6 and 7.63 | 1.0 (≈ 0.607 µM) | 0.25 | > 128 | 1.0 | 0.13 | 89 | 100 | 1.0 (≈ 0.607 µM) | 0.13 (≈ 0.0788 µM) | 1.0 (≈ 0.607 µM) | 0.5 | 2 (≈ 1.21 µM) | 150 to 250 | 175 | 4.0 | 204 ± 17 | 0.13 (≈ 0.0788 µM) | MIC [10]: 0.25 µg/mL; MIC (Clostridium perfringens): 8 µg/mL (≈ 4.85 µM); MIC [11]: 0.13 µg/mL; MIC [12]: 1.0 µg/mL; MIC [13]: 16.0 µg/mL; MIC [14]: 1.0 µg/mL (≈ 0.607 µM); MIC [15]: 0.25 µg/mL (≈ 0.152 µM); MIC [16]: 2 µg/mL (≈ 1.21 µM); ED50 (Staphylococcus aureus [17]): 0.16 mg/kg; ED50 (Streptococcus pneumoniae [18]): 0.14 mg/kg; ED50 (Streptococcus pyogenes [19]): 0.032 mg/kg; ED50 (Streptococcus pyogenes [19]; oral administration): 59 mg/kg; MIC [20]: 1.0 µg/mL; growth inhibition [21]: inhibit the growth of certain pathogenic organisms, particularly gram-positive bacteria; MIC [22]: 1.0 µg/mL (≈ 0.607 µM); MIC [23]: 64 µg/mL (≈ 38.8 µM); MIC (Fusobacterium symbiosum): > 128 µg/mL; MIC [24]: 0.25 µg/mL; MIC (Eubacterium aerofaciens): 8 µg/mL (≈ 4.85 µM); MIC (Streptococcus pyogenes [25]): 0.13 µg/mL (≈ 0.0788 µM)
2 | CCC(C)CCCCCCCCC(=O)N[C@@H](Cc1c[nH]c2ccccc12)C(=O)N[C@@H](CC(N)=O)C(=O)N[C@@H](CC(=O)O)C(=O)N[C@@H]1C(=O)NCC(=O)N[C@@H](CCCN)C(=O)N[C@@H](CC(=O)O)C(=O)N[C@H](C)C(=O)N[C@@H](CC(=O)O)C(=O)NCC(=O)N[C@H](CO)C(=O)N[C@@H]([C@H](C)CC(=O)O)C(=O)N[C@@H](CC(=O)c2ccccc2N)C(=O)O[C@@H]1C (some centres unmarked) [Factor C3] | 803 | 5.73 and 5.75 | 7.54 and 7.58 | < 0.5 | 0.13 | > 128 | 0.5 | 0.06 | 78 | 78 | 1.0 (≈ 0.601 µM) | 0.03 (≈ 0.018 µM) | 1.0 (≈ 0.601 µM) | 0.13 | 1.0 (≈ 0.601 µM) | < 50 | 70 to 75 | 4.0 | < 160 | 0.06 (≈ 0.0361 µM) | MIC [10]: 0.13 µg/mL; MIC (Clostridium perfringens): 8 µg/mL (≈ 4.81 µM); MIC [11]: 0.25 µg/mL; MIC [12]: 0.13 µg/mL; MIC [13]: 32.0 µg/mL; MIC [14]: < 0.5 µg/mL; MIC [15]: 0.13 µg/mL (≈ 0.0782 µM); MIC [16]: 1.0 µg/mL (≈ 0.601 µM); ED50 (Staphylococcus aureus [17]): 0.08 mg/kg; ED50 (Streptococcus pneumoniae [18]): 0.09 mg/kg; ED50 (Streptococcus pyogenes [19]): 0.032 mg/kg; ED50 (Streptococcus pyogenes [19]; oral administration): 66 mg/kg; MIC [20]: 0.5 µg/mL; growth inhibition [21]: inhibit the growth of certain pathogenic organisms, particularly gram-positive bacteria; MIC [22]: 1.0 µg/mL (≈ 0.601 µM); MIC [23]: 32 µg/mL (≈ 19.2 µM); MIC (Fusobacterium symbiosum): 16 µg/mL (≈ 9.62 µM); MIC [24]: 0.13 µg/mL; MIC (Eubacterium aerofaciens): 4 µg/mL (≈ 2.41 µM); MIC (Streptococcus pyogenes [25]): 0.06 µg/mL (≈ 0.0361 µM)

Reference: USRE32455E, “A-21978 antibiotics and process for their production” (priority 1985, dated 1987)
